# Assay results: the supplement of paper PMC9549728
# Counter-ions that a name gives are not always drawn.
# What was measured:
# Assay in all cases: IC50 (viability, PrestoBlue) (log10 nM)
# Conditions in all cases: exposure time: 72 h
# [1] = test system: murine gastric organoid RAS-activated (Kras G12D; Tp53 R172H)
# Method: (§1)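 Murine gastric corpus organoids (normal uninduced; RAS-activated Kras G12D/Tp53 R172H; diffuse Cdh1/Apc loss; WNT-activated Apc loss/Tp53 R172H) were seeded in Matrigel into pre-spotted 384-well plates. The plates held a 196-compound library at 6.7 nM to 25,004 nM (9 doses) and were incubated 72 h. Viability was read by PrestoBlue fluorescence (560/590 nm). IC50 came from non-linear regression (Prism), reported as log10 IC50 in nM, mean of 3 passages x 2 wells.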
# [2] = test system: murine gastric organoid WNT-activated (Apc fl/fl; Tp53 R172H)
# Method: as §1
# [3] = test system: murine gastric organoid diffuse (Cdh1 fl/fl; Apc fl/fl)
# Method: as §1
# [4] = test system: murine normal gastric organoid
# Method: as §1
SMILES,IC50 (log10 nM) [1],IC50 (log10 nM) [2],IC50 (log10 nM) [3],IC50 (log10 nM) [4]
CCN(CC)CCNC(=O)c1c(C)[nH]c(/C=C2\C(=O)Nc3ccc(F)cc32)c1C [Sunitinib],3.93,3.94,3.92,3.8
CC1(C)CCC(CN2CCN(c3ccc(C(=O)NS(=O)(=O)c4ccc(NCC5CCOCC5)c([N+](=O)[O-])c4)c(Oc4cnc5[nH]ccc5c4)c3)CC2)=C(c2ccc(Cl)cc2)C1 [ABT-199],4.06,3.1,4.17,3.61
Cc1ccc(F)c(NC(=O)Nc2ccc(-c3cccc4[nH]nc(N)c34)cc2)c1 [Linifanib],3.05,3.77,4.2,3.7
Cc1c2oc3c(C)ccc(C(=O)N[C@@H]4C(=O)N[C@H](C(C)C)C(=O)N5CCC[C@H]5C(=O)N(C)CC(=O)N(C)[C@@H](C(C)C)C(=O)O[C@@H]4C)c3nc-2c(C(=O)N[C@@H]2C(=O)N[C@H](C(C)C)C(=O)N3CCC[C@H]3C(=O)N(C)CC(=O)N(C)[C@@H](C(C)C)C(=O)O[C@@H]2C)c(N)c1=O [Actinomycin D],< 0.826,< 0.826,< 0.826,< 0.826
O=C1NC(=O)[C@@H](c2cn3c4c(cccc24)CCC3)[C@@H]1c1c[nH]c2ccccc12 [Tivantinib],2.4,2.79,3.1,2.87
N#CCNC(=O)c1ccc(-c2ccnc(Nc3ccc(N4CCOCC4)cc3)n2)cc1 [CYT387],3.51,4.05,3.58,3.48
O=C(/C=C/c1cccc(S(=O)(=O)Nc2ccccc2)c1)NO [Belinostat],2.61,3.27,3.29,3.2
O=C1c2c(O)ccc(O)c2C(=O)c2c(NCCNCCO)ccc(NCCNCCO)c21 [Mitoxantrone dihydrochloride],2.2,3.38,2.41,2.13
CC(C)(C)c1cc(NC(=O)Nc2ccc(-c3cn4c(n3)sc3cc(OCCN5CCOCC5)ccc34)cc2)no1 [Quizartinib],< 0.826,2.01,3.09,3.06
COc1cc2c(cc1OC)CN(CCc1ccc(NC(=O)c3cc(OC)c(OC)cc3NC(=O)c3cnc4ccccc4c3)cc1)CC2 [Tariquidar],3.73,3.76,3.95,4.26
Clc1ccc(Nc2nnc(Cc3ccncc3)c3ccccc23)cc1 [Vatalanib],3.75,3.61,4.26,3.55
COc1cc([C@@H]2c3cc4c(cc3[C@@H](O[C@@H]3O[C@@H]5CO[C@@H](C)O[C@H]5[C@H](O)[C@H]3O)[C@H]3COC(=O)[C@H]23)OCO4)cc(OC)c1O [Etoposide],2.89,3.07,3.06,2.67
CC(=O)c1c(C)c2cnc(Nc3ccc(N4CCNCC4)cn3)nc2n(C2CCCC2)c1=O [Palbociclib],4.07,4.13,4.37,4.24
Cc1nc(C(=O)NCC(=O)O)c(O)c2ccc(Oc3ccccc3)cc12 [Roxadustat (FG-4592)],< 0.826,1.23,3.27,2.38
N.N.[Cl][Pt][Cl] [Cisplatin],3.54,3.59,3.13,3
CO[C@H]1C[C@@H]2CC[C@@H](C)[C@@](O)(O2)C(=O)C(=O)N2CCCC[C@H]2C(=O)O[C@H]([C@H](C)C[C@@H]2CC[C@@H](OCCO)[C@H](OC)C2)CC(=O)[C@H](C)/C=C(\C)[C@@H](O)[C@@H](OC)C(=O)[C@H](C)C[C@H](C)/C=C/C=C/C=C/1C [Everolimus],3.26,3.26,3.31,3.4

SMILES,IC50 (log10 nM) [1],IC50 (log10 nM) [2],IC50 (log10 nM) [3],IC50 (log10 nM) [4]
COC(=O)C[C@](O)(CCCC(C)(C)O)C(=O)O[C@@H]1C(OC)=C[C@]23CCCN2CCc2cc4c(cc2[C@H]13)OCO4 [Homoharringtonine],1.56,0.956,1.82,1.91
C1=N/C2=N/c3ccc(OCCN4CCCC4)c(c3)COC/C=C/COCc3cccc(c3)C(=C1)N2 [Pacritinib],3.76,2.91,3.48,3.23
CN1CCN(c2ccc3nc(-c4c(N)c5c(F)cccc5[nH]c4=O)[nH]c3c2)CC1 [Dovitinib],3.46,3.41,3.4,3.21
Cc1ccc(Nc2nccc(N(C)c3ccc4c(C)n(C)nc4c3)n2)cc1S(N)(=O)=O [Pazopanib],> 4.4,> 4.4,1.42,4.21
Cc1nc(Nc2ncc(C(=O)Nc3c(C)cccc3Cl)s2)cc(N2CCN(CCO)CC2)n1 [Dasatinib hydrochloride],1.86,1.29,2.3,2.05
COc1ccc(-c2cc3c(C)nc(N)nc3n([C@H]3CC[C@H](OCCO)CC3)c2=O)cn1,2.17,2.11,2,2.08
CNC(=O)c1cc(Oc2ccc(NC(=O)Nc3ccc(Cl)c(C(F)(F)F)c3)cc2)ccn1 [Sorafenib],3.98,3.9,3.88,3.78
Cc1sc2c(c1C)C(c1ccc(Cl)cc1)=N[C@@H](CC(=O)Nc1ccc(O)cc1)c1nnc(C)n1-2 [OTX-015],3.11,2.85,2.47,2.22
Oc1ncc(N(CCCl)CCCl)c(O)n1 [Uramustine],3.2,3.68,3.69,3.3
Cc1ccc(NC(=O)c2ccc(CN3CCN(C)CC3)cc2)cc1Nc1nc(-c2cccnc2)cs1 [Masitinib mesylate],2.38,3.35,4.25,3.68
CC[C@]1(O)C[C@H]2CN(CCc3c([nH]c4ccccc34)[C@@](C(=O)OC)(c3cc4c(cc3OC)N(C=O)[C@H]3[C@@](O)(C(=O)OC)[C@H](OC(C)=O)[C@]5(CC)C=CCN6CC[C@]43[C@@H]65)C2)C1 [Vincristine sulfate],2.08,2.19,1.89,1.68
Nc1ccn([C@@H]2O[C@H](CO)[C@@H](O)[C@@H]2O)c(=O)n1 [Cytarabine],2.07,2.9,2.71,2.33
Cn1cnc2c(F)c(Nc3ccc(Br)cc3F)c(C(=O)NOCCO)cc21 [Binimetinib],2.28,2.96,3.03,2.09
COC(=O)N[C@@H](C)CNc1nccc(-c2cn(C(C)C)nc2-c2cc(Cl)cc(NS(C)(=O)=O)c2F)n1 [LGX818],< 0.826,2.62,< 0.826,3.91
Cn1nccc1Nc1nccc(-c2ccn([C@H](CO)c3ccc(Cl)c(F)c3)c(=O)c2)n1 [Ravoxertinib],3.74,3.44,> 4.4,3.18
